Results on one compound are retold here after US7989165B2, “Tape stripping methods for analysis of skin disease and pathological skin state” (DermTech International, priority 2004, dated 2011).

Holding throughout (assay type): in vivo, human
The test system of one assay is GAPDH mRNA. Briefly: Semi-quantitative RT-PCR of GAPDH mRNA relative to β-actin in SLS-occluded skin (tape and biopsy). Particulars: 1% SLS 24 h occluded skin, mean ± SD per subject, last line average, sulfate. The text has this:
Clinical protocols: The study protocols were reviewed and approved by an independent IRB (BioMed IRB, San Diego) and all subjects signed informed consent. Ten healthy women, ages 21-55 were enrolled in the study. Regions of unblemished, normal appearing skin on the mid back were chosen for the application of 2 occlusive patches in the form of bandages approximately 4 cm×6.5 cm. The bandages were made using a clear, non-porous plastic hypoallergenic adhesive tape. In the center of this tape was a Webril (non-woven cotton) patch measuring approximately 2 cm×4.5 cm. One Webril patch contained 0.6 ml of 1% aqueous sodium lauryl sulfate and the other contained 0.6 ml of sterile water as the vehicle control. […] The sites were scored by a trained technician using the scale provided below. […] In a second study, 3 subjects had 3 patches containing 1% SLS and 3 water patches applied to the mid back for 24 hours: Patches were removed, scored and tape stripped as above. […]
Quantitative RT-PCR: 10 μl of RNA was reverse transcribed (RT) into cDNA with the Sensiscript Reverse Transcriptase kit and random hexamers in a final volume of […] according to the manufacturer's directions. […]
(§1) Amplification and detection of specific mRNA: Specific mRNAs were converted to cDNA as described above. Specific cDNAs were semi-quantified using gene specific primer/probes (5′-nuclease assay) and fluorescence detection.

A further assay relates to IL-8 mRNA. In words: Semi-quantitative RT-PCR of IL-8 mRNA relative to β-actin in SLS-occluded skin (tape and biopsy).
Description: Clinical protocols: The study protocols were reviewed and approved by an independent IRB (BioMed IRB, San Diego) and all subjects signed informed consent. Ten healthy women, ages 21-55 were enrolled in the study. Regions of unblemished, normal appearing skin on the mid back were chosen for the application of 2 occlusive patches in the form of bandages approximately 4 cm×6.5 cm. The bandages were made using a clear, non-porous plastic hypoallergenic adhesive tape. In the center of this tape was a Webril (non-woven cotton) patch measuring approximately 2 cm×4.5 cm. One Webril patch contained 0.6 ml of 1% aqueous sodium lauryl sulfate and the other contained 0.6 ml of sterile water as the vehicle control. […] At 24 hours post application, the SLS and water patches were removed and the skin allowed to air dry for 15 minutes before scoring. The sites were scored by a trained technician using the scale provided below. Patched sites were large enough that two areas could be tape harvested without overlap and room left for a shave biopsy (˜2×2 mm). Skin sites were tape stripped with 4 tapes each and then a shave biopsy taken under local anesthetic (lidocaine HCl 1% and epinephrine 1:100,000; Abbott Laboratories). The tapes were applied to the skin using 20 seconds of firm pressure with a circular motion The tape used for tape stripping was a synthetic rubber-based adhesive on a polyurethane film (Product No. 90068, Adhesive Research, Glen Rock, Pa.). An area of uninvolved skin was tape harvested and shave biopsied in an identical manner. Tapes were stored in individual eppendorf tubes at −80 until extraction; biopsy samples were placed in buffer RLT and stored at −80 until extraction. Skin responses to each patch application were examined and graded under light supplied by a 100-watt incandescent blue bulb. The following grading scale was used: 0, no visible reaction; 1, slight, pink, patchy erythema; 2, mild confluent, pink erythema; 3, moderate erythema (definite redness) with edema; 4, strong erythema (very intense redness) with edema. In a second study, 3 subjects had 3 patches containing 1% SLS and 3 water patches applied to the mid back for 24 hours: Patches were removed, scored and tape stripped as above. In a third study, two individuals were tape stripped on uninvolved skin on the upper back at three adjacent sites as above. RNA harvested in these last two studies was used in the DNA microarray experiments described below.
Isolation of RNA: The RNA within skin cells adherent to the 4 tapes used to harvest a site was pooled by simultaneously extracting the tapes in a volume of buffer RLT (supplied with RNeasy kit). Extraction was performed using the manufacturer's directions and included a Proteinase K digestion, sonication of tapes and “on-column” DNase I digestion. RNA was eluted in 100 microliters of sterile, RNase free water. Extraction of biopsies was performed with the same kit according to the manufacturer's instructions.
Quantitative RT-PCR: 10 μl of RNA was reverse transcribed (RT) into cDNA with the Sensiscript Reverse Transcriptase kit and random hexamers in a final volume of […] according to the manufacturer's directions. The reaction was diluted 5-fold with sterile, nuclease-free water (Ambion) for use in the subsequent amplification/detection reaction. For each specific mRNA detection, 3 replicate RT^+ reactions and one RT^− (no reverse transcriptase; negative control) reaction were performed. Two amplification/detection reactions were done on each RT^+ reaction to yield a total of 6 independent determinations of the threshold value (Ct; discussed below).
as §1

The subject of another assay is Krt-10 mRNA. In words: RT-PCR of keratin-10 mRNA relative to β-actin in SLS-irritated and control skin (tape and biopsy). More on the design: key to ΔCt,Krt-10, Tape, SLS / ΔCt,Krt-10, Biopsy, SLS: ΔCt: keratin mRNA Ct normalized to β-actin Ct in same sample. Particulars: for ΔCt,Krt-10, Biopsy, SLS / ΔCt,Krt-10, Tape, SLS: 1% SLS occlusive patch 24 hours, mid-back, relative to β-actin, per subject 1-10 and Average; for ΔCt,Krt-10, Biopsy, SLS / Fold Increase Krt-10/β-actin mRNA vs. normal, Biopsy, SLS: biopsy RNA; for ΔCt,Krt-10, Biopsy, SLS / ΔCt,Krt-10, Tape, SLS / Fold Increase Krt-10/β-actin mRNA vs. normal, Biopsy, SLS / Fold Increase Krt-10/β-actin mRNA vs. normal, Tape, SLS: sulfate; for ΔCt,Krt-10, Tape, SLS / Fold Increase Krt-10/β-actin mRNA vs. normal, Tape, SLS: tape-stripped RNA; for Fold Increase Krt-10/β-actin mRNA vs. normal, Biopsy, SLS / Fold Increase Krt-10/β-actin mRNA vs. normal, Tape, SLS: 1% SLS patch 24 hours vs untreated skin, per subject and Average. The text has this:
The samples analyzed in this study are those described in the protocol performed by Wong et al. (Wong, Tran et al. 2004). […] Patches were removed and equivalent skin sites were biopsied and tape stripped as described in the Examples above. As an additional control, normal skin was also biopsied and tape stripped. Samples were processed for total RNA and assayed for keratin-10, keratin-16, keratin-17 and β-actin mRNA. The keratin mRNAs were normalized to β-actin mRNA in each sample. The semi-quantitative RT-PCR assay has been previously described (Wong, Tran et al. 2004).

Setting [1] is: SLS-occluded skin vs uninvolved skin.

“And” between values parts separate entries of the source, which are not always exact repeats. Identical values can stand only once. Marks after values point to notes of the source that are not given here.

Regarding `CCCCCCCCCCCCOS(=O)(=O)[O-].[Na+]` [SLS, sodium lauryl sulfate], in the assay with GAPDH mRNA (shave biopsy RNA), the “ΔCt,GAPDH (Ct,GAPDH − Ct,actin), Biopsy” value is 1.44 ± 0.11 and 1.68 ± 0.09 and 1.78 ± 0.10 and 2.33 ± 0.07 and 1.73 ± 0.09 and 1.54 ± 0.10 and 3.25 ± 0.08 and 1.05 ± 0.07 and 1.61 ± 0.11 and 1.95 ± 0.08. The “ΔCt,GAPDH (Ct,GAPDH − Ct,actin), Tape” value in the assay with GAPDH mRNA (tape-harvested RNA) was 3.02 ± 0.08 and 2.28 ± 0.10 and 3.15 ± 0.15 and 2.87 ± 0.10 and 2.68 ± 0.09 and 3 ± 0.11 and 2.85 ± 0.15 and 2.46 ± 0.08 and 2.78 ± 0.44 and 2.56 ± 0.11. Besides, the “fold-change in IL-8/β-actin mRNA ratio, Biopsy” value in the assay on IL-8 mRNA (SLS-occluded skin relative to uninvolved skin, biopsy samples, per subject, > = minimum estimate, sulfate) is >171**^† fold and >12**^† fold and >101**^† fold and >778**^† fold and >42**^† fold and >594**^† fold and >368**^† fold and >1.1 fold (2×) and 84**^† fold. The “fold-change in IL-8/β-actin mRNA ratio, Tape” value with IL-8 mRNA (SLS-occluded skin relative to uninvolved skin, tape samples, per subject, > = minimum estimate, sulfate) was 24**^† fold and >9.3**^† fold and >6.8** fold and >235**^† fold and >41**^† fold and 18** fold and >3** fold and 6**^† fold. For the same compound, in the assay on IL-8 mRNA (setting [1]), the “biopsy samples with significant increases in IL-8/actin mRNA ratio” value was 8 of 10 and the “tape-harvested samples with significantly increased IL-8/β-actin mRNA ratio” value is on record as 8 of 10. Besides, in the assay on IL-8 mRNA (SLS-occluded skin, biopsy RNA, per subject and average, sulfate), the “ΔCt,IL-8, Biopsy” value is 4.13 and 6.56 ± 0.10 and 3.06 ± 0.11 and 0.76 ± 0.13 and 5.11 ± 0.06 and 1.67 ± 0.08 and 1.06 ± 0.07 and 9.81 ± 0.26 and 9.15 ± 0.15 and 1.82 ± 0.05 and 2.29 ± 0.13. In addition, the “ΔCt,IL-8, Tape” value in the assay on IL-8 mRNA (SLS-occluded skin, tape-harvested RNA, per subject and average, > = minimum ΔCt (Ct assigned 37), sulfate) is −1.28 and −0.89 and −1.28 ± 0.11 and −3.05 ± 0.15 and −0.05 ± 0.11 and −0.68 ± 0.08 and −0.44 ± 0.06 and 0.02 ± 0.17 and 0.56 ± 0.07 and >1.51 ± 0.17 and −0.36 ± 0.05 and −2.59 ± 0.07. Further, in the assay with IL-8 mRNA (tape-harvested, from ΔCt −1.28 and average ΔCt 1.54), the “IL-8/actin mRNA ratio of subject 4's SLS site vs average for water-occluded samples” value was determined as 7.1 fold. Further, the “IL-8/β-actin mRNA ratio of subject 4's SLS site vs average value for uninvolved skin” value in the assay on IL-8 mRNA (tape-harvested, from ΔCt −1.28 and average ΔCt >2.49) is given as at least 13.6 fold. Besides, in the assay with Krt-10 mRNA, the “ΔCt,Krt-10, Biopsy, SLS” value was −4.28 and −0.24 and −3.09 and −6.35 and −4 and 0.4 and −2 and −2.7 and 1.91 and −5.97; the “ΔCt,Krt-10, Tape, SLS” value is −2.76 and 3.68 and 8.19 and −0.3 and 0.93 and 5.1 and 1.03 and 4.17 and 3.81 and −0.81; the “Fold Increase Krt-10/β-actin mRNA vs. normal, Biopsy, SLS” value is 0.15 fold and 0.01 fold (2×) and 0.06 fold (2×) and 0.65 fold and 0.1 fold and 0.03 fold and <0.001 fold and 0.57 fold; the “Fold Increase Krt-10/β-actin mRNA vs. normal, Tape, SLS” value was 1.55 fold and 0.03 fold and <0.001 fold and 0.01 fold (3×) and 0.31 fold and 1.22 fold. In the assay with Krt-10 mRNA (mean), the “ΔCt,Krt-10, Biopsy, SLS” value is reported as −2.63; the “ΔCt,Krt-10, Tape, SLS” value is given as 2.30; the “Fold Increase Krt-10/β-actin mRNA vs. normal, Biopsy, SLS” value came to 0.05 fold; the “Fold Increase Krt-10/β-actin mRNA vs. normal, Tape, SLS” value amounted to 0.06 fold. Moreover, in the assay on Krt-10 mRNA (SLS treatment vs untreated skin, tape and biopsy virtually identical), the “average decrease in K10 expression” value is listed as about 20 fold.
